The text below walks through data of US7273925B1, “Methods and products for regulating lectin complement pathway associated complement activation” (Brigham and Women's Hospital, Inc., priority 1998, dated 2007).

In general, EC50 refers to the concentration needed to bring the measured effect to its halfway point. A higher EC50 goes with weaker potency.

Experiment [1] deals with T1, MBL (Homo sapiens, UniProt P11226).
T1 construct: 3 hr of reoxygenation in the presence of 30% human serum (HS); from tissue; host or cells: human serum (30% HS on HUVECs; 2% human sera on mannan-coated plates)
T1 sequence (P11226 21-248): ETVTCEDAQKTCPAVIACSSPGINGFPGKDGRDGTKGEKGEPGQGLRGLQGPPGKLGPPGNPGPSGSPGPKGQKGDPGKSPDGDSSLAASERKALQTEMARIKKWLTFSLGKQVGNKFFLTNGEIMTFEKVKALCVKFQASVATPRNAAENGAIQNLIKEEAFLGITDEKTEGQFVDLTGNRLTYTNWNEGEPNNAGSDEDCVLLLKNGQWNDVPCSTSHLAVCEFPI
Kind of experiment: iC3b (C3) deposition cell surface ELISA on hypoxic/reoxygenated HUVECs. It counts as cell-based. The settings on record: for attenuation of iC3b deposition: HUVECs 24 hr hypoxia, 3 hr reoxygenation; for iC3b deposition compared with normoxic HUVECs (FIG. 4a): 30 mmol/L in 30% human serum; for inhibition of iC3b deposition on hypoxic/reoxygenated HUVECs (in words): sugar at 3-300 mmol/L in 30% HS. The protocol:
Enzyme-Linked Immunoabsorbent Assay (ELISA) Experiments. […] HUVECs were grown to confluence on 0.1% gelatinized 96-well plastic plates (Corning Costar, Cambridge, Mass.). The plates were then subjected to 0 (normoxia) or 24 hr of hypoxia. Hypoxic stress was maintained using a humidified sealed chamber (Coy Laboratory Products, Inc., Grass Lake, Mich.) at 37° C. gassed with 1% O2, 5% CO2, balance N2 (Collard C D, et al., “Reoxygenation of hypoxic human umbilical vein endothelial cells activates the classical complement pathway”, Circulation 1997;96:326-333). Following the specified period of normoxia or hypoxia, the cell media were aspirated and 100 μl of one of the following was added to each well: 1) 30% HS, 2) Hank's balanced salt solution, 3) 30% HS+3, 30, or 300 mmol/L GluNAc, 4) 30% HS+3, 30, or 300 mmol/L D-mannose, 5) 30% HS+3, 30, 300 mmol/L L-mannose, 6) 30% MBL-depleted HS+3F8 (0, 20, 50 μg/ml)or 7) 30% MBL-depleted HS +0.6 μg/ml MBL. Additionally, 100 μl of purified MBL (3-300 ng/ml) was added to select wells to form a standard curve for quantitative analysis of MBL deposition. The cells were then reoxygenated for 3 hr at 37° C. in 95% air and 5% CO2. The cells were washed and then fixed with 1% paraformaldehyde (Sigma Chemical Co., St. Louis, Mo.) for 30 min. The cells were then washed and incubated at 4° C. for 1.5 hr with 50 μl of peroxidase-conjugated polyclonal goat anti-human C3 antibody (1:1000 dilution) or monoclonal anti-human MBL antibody (1:1000 dilution). The MBL ELISA plates were then washed and incubated for 1 hr at 4° C. with 50 μl of peroxidase-conjugated polyclonal goat anti-mouse IgG secondary antibody (1:1000 dilution). After washing the cells, the plates were developed with […] of ABTS (2,2′-azino-bis(3-ethylbenzthiazoline-6-sulfonic acid)), and read (Molecular Devices, Sunnyvale, Calif.) at 405 nm. Background controls for the C3 ELISA consisted of cells to which only the anti-human C3 antibody was added (i.e., no […]) or cells incubated with 30% heat-inactivated HS. Background controls for the MBL ELISA consisted of cells to which only secondary antibody and an isotype control monoclonal antibody to porcine C5a were added. Background optical density was subtracted from all groups. All ELISA experiments were performed 3 times using 6 wells per experimental group. Endothelial C3 and MBL deposition on normoxic vs. hypoxic […] was analyzed by two-way analysis of variance (ANOVA).
HUVEC cell culture and quantitation of iC3b deposition by ELISA were performed as outlined in Example 2.
Results. HUVECs were subjected to 0 or 24 hr of hypoxia followed by 3 hr of reoxygenation in the presence of 30% HS or 30% HS treated with 3, 30, or 300 mmol/L GluNAc, D-mannose or L-mannose in order to inhibit MBL deposition, LCP activation and iC3b deposition.
HUBECs were hypoxic for 24 hours and then reoxygenated in 30% human sera. iC3b deposition was then normalized to normoxic cells.
(In general: ELISA stands for enzyme-linked immunosorbent assay.)

For experiment [2], the target named is T1, MBL. Kind of experiment: Functional screen: C3 deposition on mannan-coated plates in 2% human sera. It counts as biochemical. The procedure: Methods. The functional screen for inhibition of MBL function by anti-human MBL antibodies was adapted from the literature{Super, Levinsky, et al., The level of mannan-binding protein regulates the binding of complement-derived opsonins to mannanand zymosan at low serum concentrations, Clin. Exp. Immunol. 1990; 79:144-150}. Briefly, 100 μl of mcannan (0.5 mg/ml in sodium carbonate/bicarbonate buffer, pH 9.6) was added to RIA/EIA plates at 4C overnight. The plates were then washed 3 times in PBS/0.5% Tween pH 7.3, once in PBS and finally in veronal-buffered saline. Human serum is diluted to 4% in VBS containing 5 mM Ca^2+ and Mg^2+. Diluted sera and tissue culture supernatant or purified antibody (various concentrations) are then 1:1 to a mannan-coated well to yield a final volume or 100 μl at a concentration of 2% human sera. The plate is then incubated at 37C for 30 min. Positive and negative controls consist of human sera without and with 100 mM N-acetlglucosamine (GluNac). The plates are then washed four times in PBS/Tween. The plates are then incubated with an anti-human C3 polyclonal antibody coupled with HRP (1 hours at RT), washed and developed with ABTS and read at 405 nm.

Experiment [3] has as its target T1, MBL. Kind of experiment: MBL deposition cell surface ELISA on hypoxic/reoxygenated HUVECs. Type of experiment: cell-based. The settings on record: for attenuation of MBL deposition: HUVECs 24 hr hypoxia, 3 hr reoxygenation. The protocol: C3 and MBL specific cell surface ELISAs can be performed using peroxidase-conjugated polyclonal goat anti-human C3 antibody (Cappel, West Chester, Pa.) and monoclonal anti-human MBL antibody (Biodesign, Kennebunk, Me., clone #131-1), respectively. HUVECs are grown to confluence on 0.1% gelatinized 96-well plastic plates (Corning Costar, Cambridge, Mass.). The plates are then subjected to 0 (normoxia) or 24 hr of hypoxia. Hypoxic stress is maintained using a humidified sealed chamber (Coy Laboratory Products, Inc., Grass Lake, Mich.) at 37° C. gassed with 1% O2, 5% CO2, balance N2 (Collard C D, et al., “Reoxygenation of hypoxic human umbilical vein endothelial cells activates the classical complement pathway”, Circulation, 1997;96:326-333). Following the specified period of normoxia or hypoxia, the cell media are aspirated and 100 μl of one the following is added to each well: 1) 30% HS, 2) Hank's balanced salt solution, 3) 30% HS +3, 30, or 300 mmol/L GluNAc, 4) 30% HS+3, 30, or 300 mmol/L D-mannose, 5) 30% HS+3, 30, 300 mmol/L L-mannose, 6) 30% MBL-depleted HS 7) 30% MBL-depleted HS+0.6 μg/ml MBL or 8) 30% HS+3, 30, or 300 mmol/L putative MBL binding peptide. Additionally, 100 μl of purified MBL (3-300 ng/ml) is added to select wells to form a standard curve for quantitative analysis of MBL deposition. The cells are then reoxygenated for 3 hr at 37° C. in 95% air and 5% CO2. The cells are washed and then fixed with 1% paraformaldehyde (Sigma Chemical Co., St. Louis, Mo.) for 30 min. The cells are then washed and incubated at 4° C. for 1.5 hr with 50 μl of peroxidase-conjugated polyclonal goat anti-human C3 antibody (1:1000 dilution) or monoclonal anti-human MBL antibody (1:1000 dilution). The MBL ELISA plates are then washed and incubated for 1 hr at 4° C. with 50 μl of peroxidase-conjugated polyclonal goat anti-mouse IgG secondary antibody (1:1000 dilution). After washing the cells, the plates are developed with 50 μl of ABTS (2,2′-azino-bis(3-ethylbenzthiazoline-6-sulfonic acid)), and read (Molecular Devices, Sunnyvale, Calif.) at 405 nm. Background controls for the C3 ELISA consist of cells to which only the anti-human C3 antibody is added (i.e., no HS) or cells incubated with 30% heat-inactivated HS. Background controls for the MBL ELISA consist of cells to which only secondary antibody and an isotype control monoclonal antibody to porcine C5a are added. Background optical density is subtracted from all groups. ELISA experiments are generally performed 3 times using 6 wells per experimental group. Endothelial C3 and MBL deposition on normoxic vs. hypoxic HUVECs is analyzed by two-way analysis of variance (ANOVA).
Enzyme-Linked Immunoabsorbent Assay (ELISA) Experiments. […]

The subject of experiment [4] is HUVECs. The experiment can be described thus: Microphysiometry of HUVEC extracellular acidification rate (EAR). It counts as cell-based, human. The note with it: normoxic or hypoxic/reoxygenated HUVECs; MBL 300-1500 ng/ml, 40 min perfusion; histamine 1 μmol/L. The procedure:
Microphysiometry. Changes in HUVEC extracellular acidification rate (EAR) were evaluated by use of a Cytosensor microphysiometer (Molecular Devices, Sunnyvale, Calif.). HUVECs were grown to 75% confluence on gelatin-coated (1%) transwell capsules and subjected to 24 hr of hypoxia followed by 3 hr of reoxygenation. Following 30 min of equilibration in modified RPMI containing 1 mmol/L phosphate buffer (Molecular Devices, Sunnyvale, Calif.), the EARs were determined (Gronert K, et al., “Characterization of human neutrophil and endothelial cell ligand-operated extacellular acidification rate by microphysiometry: Impact of reoxygenation”, J. Pharmacol.Exp.Ther. 1998;285:252-261). HUVECs were perfused with 300-1500 ng/ml of purified MBL (dialyzed in the modified RPMI) for 30 sec before the first rate measurement and perfusion was maintained for 40 min. As a positive control, the HUVECs were perfused with media alone for 15 min following MBL exposure and then stimulated with histamine (1 μmol/L, 15 min perfusion) to evoke extracellular acidification. Each concentration of MBL was analyzed in two independent chambers containing normoxic or hypoxic/reoxygenated HUVECs. The HUVEC response to each MBL concentration was evaluated in 3 separate experiments (n=3).

Consider `O=C[C@@H](O)[C@@H](O)[C@H](O)[C@H](O)CO` [D-mannose], for which the “attenuation of iC3b deposition” value in experiment [1] (3 mmol/L in 30% HS) is 19±2%; in experiment [1] (30 mmol/L in 30% HS), 52±3%; in experiment [1] (300 mmol/L in 30% HS) it was 96±2%. Moreover, the “iC3b deposition compared with normoxic HUVECs (FIG. 4a)” value in experiment [1] is reported as “did not significantly differ from normoxic controls”. Besides, the “inhibition of iC3b deposition on hypoxic/reoxygenated HUVECs (in words)” value in experiment [1] is “significantly attenuated”.
On to `CC(=O)N[C@H]1C(O)O[C@H](CO)[C@@H](O)[C@@H]1O` (stereo partly drawn) [GluNAc, N-acetyl-D-glucosamine], for which the “iC3b deposition compared with normoxic HUVECs (FIG. 4a)” value in experiment [1] is “did not significantly differ from normoxic controls”. In experiment [1], the “inhibition of iC3b deposition on hypoxic/reoxygenated HUVECs (in words)” value is on record as “significantly attenuated”. Also, the EC50 in experiment [2] is roughly 1 nM. Moreover, the “attenuation of MBL deposition” value turned out to be 40±4% in experiment [3] (3 mmol/L in 30% HS), 71±5% in experiment [3] (30 mmol/L in 30% HS) and 96±3% in experiment [3] (300 mmol/L in 30% HS). Moreover, in experiment [3] (3, 30, 300 mmol/L added to 30% HS, dose-dependent), the “MBL deposition on hypoxic/reoxygenated HUVECs (in words)” value is recorded as “significantly inhibited MBL deposition”.
As to “MBL: mannan-(or mannose) binding lectin purified from human plasma”, the “change in extracellular acidification rate (EAR)” value in experiment [4] is recorded as “did not evoke receptor-mediated changes in the EAR”.
In the case of `O=C[C@H](O)[C@H](O)[C@@H](O)[C@@H](O)CO` [L-mannose], in experiment [1], the “iC3b deposition compared with normoxic HUVECs (FIG. 4a)” value is reported as “significantly greater than normoxic HUVECs” and the “inhibition of iC3b deposition on hypoxic/reoxygenated HUVECs (in words)” value was “did not inhibit iC3b deposition”. In addition, the “iC3b deposition, OD405” value in experiment [1] (hypoxic HUVECs reoxygenated in 30% HS treated with the sugar, normoxic 0.05±0.01) is 0.14±0.01.
`NCCc1c[nH]cn1` [histamine]: the “change in extracellular acidification rate (EAR)” value in experiment [4] is on record as “all cells remained responsive”.
